Data published in ChEMBL document CHEMBL1201862, “PubChem BioAssay data set” (2004).
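Compound exposure: 48 hours, 5 concentrations, 96-well plates. Abbreviation: GI50, concentration required for 50% inhibition of growth.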 Activity calls are given as the source filed them. No stated cut-off is given here; in the data, active = GI50 up to about 1.1 µM and inactive = higher.

Assays:
Assay in all cases: NCI-60 cell line screen, 48 h
COLO 205 = test system: COLO 205
NCI-H460 = test system: NCI-H460
HOP-62 = test system: HOP-62
SF-295 = test system: SF-295
SN12C = test system: SN12C
HT-29 = test system: HT-29
DU-145 = test system: DU-145
786-0 = test system: 786-0
LOX IMVI = test system: LOX IMVI
HL-60 = test system: HL-60
RPMI-8226 = test system: RPMI-8226
SNB-19 = test system: SNB-19
U-251 = test system: U-251
NCI/ADR-RES = test system: NCI/ADR-RES
PC-3 = test system: PC-3
K562 = test system: K562
SR = test system: SR
HCT-15 = test system: HCT-15
CCRF-CEM = test system: CCRF-CEM
MCF7 = test system: MCF7

Structure (SMILES)	GI50 (COLO 205)	GI50 (NCI-H460)	GI50 (HOP-62)	GI50 (SF-295)	GI50 (SN12C)	GI50 (HT-29)	GI50 (DU-145)	GI50 (786-0)	GI50 (LOX IMVI)	GI50 (HL-60)	GI50 (RPMI-8226)	GI50 (SNB-19)	GI50 (U-251)	GI50 (NCI/ADR-RES)	GI50 (PC-3)	GI50 (K562)	GI50 (SR)	GI50 (HCT-15) [µM]	GI50 (CCRF-CEM)	GI50 (MCF7)
COc1cc(NS(C)(=O)=O)ccc1NCc1c[nH]c2ccc3nc(C)ccc3c12	55 µM (inactive)	68.1 µM (inactive)	55.5 µM (inactive)	48.8 µM (inactive)	60.5 µM (inactive)	49.5 µM (inactive)	32.1 µM (inactive)	30.4 µM (inactive)	49.5 µM (inactive)	8.45 µM (inactive)	17.1 µM (inactive)	77.8 µM (inactive)	77.6 µM (inactive)	> 100 µM (inactive)	43.9 µM (inactive)	0.594 µM (active)	4.89 µM (inactive)	37.9	17.7 µM (inactive)	36.1 µM (inactive)
C=C1C(=O)O[C@H]2C3C(=C(C)CC[C@@H]12)C(=O)[C@@H]1OC31C (stereo not given in full)	1.2 µM (inactive)	10.1 µM (inactive)	14.8 µM (inactive)	14 µM (inactive)	1.63 µM (inactive)	1.66 µM (inactive)	12.5 µM (inactive)	1.86 µM (inactive)	2.11 µM (inactive)	0.23 µM (active)	0.746 µM (active)	15.8 µM (inactive)	13.4 µM (inactive)	3.13 µM (inactive)	2.69 µM (inactive)	0.698 µM (active)	0.622 µM (active)	1.66	0.318 µM (active)	1.8 µM (inactive)
